Where two headings read alike, the source gives them in different places. Where a SMILES comes first, the peptide text is derived from it. Bridges are numbered along the chain shown (N, C = ends). [ ]: non-standard residue; d: D form. The star is where a group is joined. hPhe(3-Cl-4-CF3) = N[C@@H](CCc1ccc(C(F)(F)F)c(Cl)c1)C(=O)O; NPrPhe(4-CF3) = CCCN[C@@H](Cc1ccc(C(F)(F)F)cc1)C(=O)O; NPrPhe(4-Me) = CCCN[C@@H](Cc1ccc(C)cc1)C(=O)O; NEtPhe(4-Me) = CCN[C@@H](Cc1ccc(C)cc1)C(=O)O; NMeGly(cPent) = CN[C@H](C(=O)O)C1CCCC1; Hyp = O=C(O)[C@@H]1C[C@@H](O)CN1; NMeD = CN[C@@H](CC(=O)O)C(=O)O; NMeL = CN[C@@H](CC(C)C)C(=O)O; Morpholide = C1CN(*)CCO1; Ac5c = NC1(C(=O)O)CCCC1; Aze = O=C(O)[C@@H]1CCN1; Ac4c = NC1(C(=O)O)CCC1; NEtG = CCNCC(=O)O; Sar = CNCC(=O)O
Legend:
[1] = target: GDP-bound KRAS wild-type protein (Homo sapiens, UniProt P01116); experiment: Binding to KRAS by surface plasmon resonance (SPR), Single Cycle Kinetics; details: GDP-bound KRAS wild-type protein, read-out: KRAS KD
[2] = target: GDP-bound NRAS wild-type protein (Homo sapiens, UniProt P01111); experiment: Binding to NRAS by surface plasmon resonance (SPR), Single Cycle Kinetics; details: for NRAS/KRAS (ratio of KD value for NRAS to KD value for KRAS) / NRAS/KRAS (ratio of KD value with respect to NRAS to KD value with respect to KRAS): SPR, GDP-bound NRAS wild-type protein vs GDP-bound KRAS wild-type protein; for NRAS/KRAS (ratio of KD value with respect to GDP-bound NRAS wild-type protein to KD value with respect to KRAS): SPR KD ratio NRAS/KRAS, class symbols
[3] = target: GDP-bound HRAS wild-type protein (Homo sapiens, UniProt P01112); experiment: Binding to HRAS by surface plasmon resonance (SPR), Single Cycle Kinetics; details: for HRAS/KRAS (ratio of KD value for HRAS to KD value for KRAS) / HRAS/KRAS (ratio of KD value with respect to HRAS to KD value with respect to KRAS): SPR, GDP-bound HRAS wild-type protein vs GDP-bound KRAS wild-type protein; for HRAS/KRAS (ratio of KD value with respect to GDP-bound HRAS wild-type protein to KD value with respect to KRAS): SPR KD ratio HRAS/KRAS, class symbols
[4] = SPR Single Cycle Kinetics, 1:1 binding model

Sequence of GDP-bound HRAS wild-type protein (P01112 whole entry): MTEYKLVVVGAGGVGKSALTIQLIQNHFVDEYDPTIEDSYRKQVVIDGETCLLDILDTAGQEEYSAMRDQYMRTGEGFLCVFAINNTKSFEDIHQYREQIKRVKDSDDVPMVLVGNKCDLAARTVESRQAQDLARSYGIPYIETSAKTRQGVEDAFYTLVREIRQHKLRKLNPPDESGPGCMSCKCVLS
Sequence of GDP-bound KRAS wild-type protein (P01116 whole entry): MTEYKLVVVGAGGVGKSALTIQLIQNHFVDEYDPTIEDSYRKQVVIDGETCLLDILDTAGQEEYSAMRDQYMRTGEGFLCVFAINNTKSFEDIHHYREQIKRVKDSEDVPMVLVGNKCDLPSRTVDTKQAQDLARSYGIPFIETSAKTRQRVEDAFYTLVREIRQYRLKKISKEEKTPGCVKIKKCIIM
Sequence of GDP-bound NRAS wild-type protein (P01111 whole entry): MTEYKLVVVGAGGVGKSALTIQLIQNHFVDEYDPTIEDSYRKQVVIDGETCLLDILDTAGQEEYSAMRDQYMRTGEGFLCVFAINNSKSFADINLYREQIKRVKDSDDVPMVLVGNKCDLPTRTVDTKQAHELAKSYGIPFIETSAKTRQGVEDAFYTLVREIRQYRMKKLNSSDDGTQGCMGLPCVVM

| Kd ([1]; SPR, Single Cycle Kinetics) | Kd [1, 4] | SMILES | NRAS/KRAS (ratio of KD value for NRAS to KD value for KRAS) [2] | HRAS/KRAS (ratio of KD value for HRAS to KD value for KRAS) [3] | also measured |
| --- | --- | --- | --- | --- | --- |
| 410 pM |  | CCC[C@H]1C(=O)N[C@@H]([C@@H](C)CC)C(=O)N(C)CC(=O)N(C)[C@H]2C/C=C\CCN(C2=O)[C@@H](Cc2ccc(C)cc2)C(=O)N(C)CC(=O)N[C@@H](CCc2ccc(C(F)(F)F)c(OC)c2)C(=O)N2C[C@H](OCC)C[C@H]2C(=O)NC2(CC(C)(C)C2)C(=O)N(C)[C@@H]([C@@H](C)CC)C(=O)N(C)[C@H](C(=O)N(C)C)CC(=O)N1C [PP3006] | A (a compound having 10 or more and less than 20 is denoted as A) | A (a compound having 10 or more and less than 20 is denoted as A) |  |
|  | 63 pM | CCCN1C(=O)CN(C)C(=O)CN(CC)C(=O)[C@H]([C@@H](C)CC)NC(=O)[C@H](CC(C)C)N(C)C(=O)C[C@@H](C(=O)N(C)C)N(C)C(=O)[C@H](C2CCCC2)N(C)C(=O)C2(CCC2)NC(=O)[C@@H]2C[C@@H](OCC)CN2C(=O)[C@H](CCc2ccc(C(F)(F)F)c(Cl)c2)NC(=O)CN(C)C(=O)[C@@H]1Cc1ccc(C(F)(F)F)cc1 [PP0428] ([NMeL]I[NEtG][Sar][NPrPhe(4-CF3)][Sar][hPhe(3-Cl-4-CF3)][Hyp](Et)[Ac4c][NMeGly(cPent)][NMeD]-NMe2; lactam N-11) |  |  | NRAS/KRAS (ratio of KD value with respect to NRAS to KD value with respect to KRAS) [2]: B (a compound having 3 or more and less than 10 is denoted as B); HRAS/KRAS (ratio of KD value with respect to HRAS to KD value with respect to KRAS) [3]: C (A compound having a KD ratio of 0.1 or more and less than 3 is denoted as C) |
|  | 2500 pM | CCCN1C(=O)CN(C)C(=O)[C@@H]2CCN2C(=O)[C@H]([C@@H](C)CC)NC(=O)[C@H](CC(C)C)N(C)C(=O)C[C@@H](C(=O)N2CCOCC2)NC(=O)[C@H](C2CCCC2)N(C)C(=O)C2(CCCC2)NC(=O)[C@@H]2CCCN2C(=O)[C@H](CCc2ccc(C(F)(F)F)c(Cl)c2)NC(=O)CN(C)C(=O)[C@@H]1Cc1ccc(C(F)(F)F)cc1 [PP0337] ([NMeL]I[Aze][Sar][NPrPhe(4-CF3)][Sar][hPhe(3-Cl-4-CF3)]P[Ac5c][NMeGly(cPent)]D-Morpholide; lactam N-11) | B (a compound having 3 or more and less than 10 is denoted as B) | B (a compound having 3 or more and less than 10 is denoted as B) |  |
| 430 pM |  | CCC[C@H]1C(=O)N[C@@H]([C@@H](C)CC)C(=O)N(C)CC(=O)N(C)[C@H]2C/C=C\CCN(C2=O)[C@@H](Cc2ccc(C)cc2)C(=O)N(C)CC(=O)N[C@@H](CCc2cc(F)c(C(F)(F)F)c(F)c2)C(=O)N2C[C@H](OCC)C[C@H]2C(=O)NC2(CC(C)(C)C2)C(=O)N(C)[C@@H](CC(F)(F)F)C(=O)N(C)[C@H](C(=O)N(C)C)CC(=O)N1C [PP2993] | A (a compound having 10 or more and less than 20 is denoted as A) | A (a compound having 10 or more and less than 20 is denoted as A) |  |
| 1500 pM |  | CCO[C@@H]1C[C@H]2C(=O)NC3(CC(C)(C)C3)C(=O)N(C)[C@@H](C(CC)CC)C(=O)N(C)[C@H](C(=O)N(C)C)CC(=O)N(C)[C@@H](COC)C(=O)N[C@@H]([C@@H](C)CC)C(=O)N(C)CC(=O)N(C)[C@H]3C/C=C\CCN(C3=O)[C@@H](Cc3ccc(C(F)(F)F)cc3)C(=O)N(C)CC(=O)N[C@@H](CCc3cc(F)c(C(F)(F)F)c(F)c3)C(=O)N2C1 [PP2121] | AA (a compound having 20 or more is denoted as AA) | A (a compound having 10 or more and less than 20 is denoted as A) |  |
|  | 250 pM | CC[C@H](C)[C@@H]1NC(=O)[C@@H]2CCC/C=C/c3ccc(cc3)C[C@@H](C(=O)N(C)CC(=O)N[C@@H](CCc3ccc(Cl)c(Cl)c3)C(=O)N3CCC[C@H]3C(=O)NC3(CC(C)(C)C3)C(=O)N(C)[C@@H](C3CCCC3)C(=O)N(C)[C@H](C(=O)N3CCCC3)CC(=O)N2C)N2CC/C=C\C[C@@H](C2=O)N(C)C(=O)CN(C)C1=O [PP2602] |  |  | NRAS/KRAS (ratio of KD value with respect to GDP-bound NRAS wild-type protein to KD value with respect to KRAS) [2]: A (a compound having 10 or more and less than 20 is denoted as A); HRAS/KRAS (ratio of KD value with respect to GDP-bound HRAS wild-type protein to KD value with respect to KRAS) [3]: A (a compound having 10 or more and less than 20 is denoted as A) |
| 1500 pM |  | CCC[C@H]1C(=O)N[C@@H](C2CCCCC2)C(=O)N(C)CC(=O)N(C)[C@H]2C/C=C\CCN(C2=O)[C@@H](Cc2ccc(C(F)(F)F)cc2)C(=O)N(C)CC(=O)N[C@@H](CCc2ccc(C(F)(F)F)c(Cl)c2)C(=O)N2C[C@H](OCC)C[C@H]2C(=O)NC2(CC(C)(C)C2)C(=O)N(C)[C@@H](CC(C)C)C(=O)N(C)[C@H](C(=O)N(C)C)CC(=O)N1C [PP3017] | AA (a compound having 20 or more is denoted as AA) | A (a compound having 10 or more and less than 20 is denoted as A) |  |
|  |  | CC[C@H](C)[C@@H]1NC(=O)[C@H](CC2CC2)N(C)C(=O)C[C@@H](C(=O)N(C)C)N(C)C(=O)[C@H](C2CCCC2)N(C)C(=O)C2(CC(C)(C)C2)NC(=O)[C@@H]2C[C@@H](C(F)(F)F)CN2C(=O)[C@H](CCc2cc(F)c(C(F)(F)F)c(F)c2)NC(=O)CN(C)C(=O)[C@H](Cc2ccc(F)cc2)N2CC/C=C\C[C@@H](C2=O)N(C)C(=O)CN(C)C1=O [PP1507] |  |  | Kd ([1]; SPR, Single Cycle Kinetics, 1:1 binding model): 170 pM; NRAS/KRAS (ratio of KD value for NRAS to KD value for KRAS) ([2]; KD ratio class): A (a compound having 10 or more and less than 20 is denoted as A); HRAS/KRAS (ratio of KD value for HRAS to KD value for KRAS) ([3]; KD ratio class): A (a compound having 10 or more and less than 20 is denoted as A) |
|  | 240 pM | C#CC[C@H]1C(=O)N[C@@H]([C@@H](C)CC)C(=O)N(C)CC(=O)N(C)[C@H]2C/C=C\CCN(C2=O)[C@@H](Cc2ccc(C(F)(F)F)cc2)C(=O)N(C)CC(=O)N[C@@H](CCc2ccc(C(F)(F)F)c(OC)c2)C(=O)N2CCOC[C@H]2C(=O)NC2(CC(C)(C)C2)C(=O)N(C)[C@@H](C2CCCC2)C(=O)N(C)[C@H](C(=O)N(C)C)CC(=O)N1C [PP2905] |  |  | NRAS/KRAS (ratio of KD value with respect to GDP-bound NRAS wild-type protein to KD value with respect to KRAS) [2]: AA (a compound having 20 or more is denoted as AA); HRAS/KRAS (ratio of KD value with respect to GDP-bound HRAS wild-type protein to KD value with respect to KRAS) [3]: A (a compound having 10 or more and less than 20 is denoted as A) |
| 190 pM |  | CCO[C@@H]1C[C@H]2C(=O)NC3(CC(C)(C)C3)C(=O)N(C)[C@@H](C(CC)CC)C(=O)N(C)[C@H](C(=O)N(C)C)CC(=O)N(C)[C@@H](CC3CCC3)C(=O)N[C@@H]([C@@H](C)CC)C(=O)N(C)CC(=O)N(C)[C@H]3C/C=C\CCN(C3=O)[C@@H](Cc3ccc(C(F)(F)F)cc3)C(=O)N(C)CC(=O)N[C@@H](CCc3cc(F)c(C(F)(F)F)c(F)c3)C(=O)N2C1 [PP2133] | AA (a compound having 20 or more is denoted as AA) | A (a compound having 10 or more and less than 20 is denoted as A) |  |
| 710 pM |  | CCO[C@@H]1C[C@H]2C(=O)NC3(CC(C)(C)C3)C(=O)N(C)[C@@H](C(CC)CC)C(=O)N(C)[C@H](C(=O)N3CCCC3)CC(=O)N(C)[C@@H](COC)C(=O)N[C@@H]([C@@H](C)CC)C(=O)N(C)CC(=O)N(C)[C@H]3C/C=C\CCN(C3=O)[C@@H](Cc3ccc(C)cc3)C(=O)N(C)CC(=O)N[C@@H](CCc3ccc(C(F)(F)F)c(OC)c3)C(=O)N2C1 [PP2167] | AA (a compound having 20 or more is denoted as AA) | A (a compound having 10 or more and less than 20 is denoted as A) |  |
|  | 1700 pM | CC[C@H](C)[C@@H]1NC(=O)[C@H](C)N(C)C(=O)C[C@@H](C(=O)N2CCOCC2)N(C)C(=O)[C@H](C2CCCC2)N(C)C(=O)C2(CCCC2)NC(=O)[C@@H]2CCCN2C(=O)[C@H](CCc2cc(F)c(C(F)(F)F)c(F)c2)NC(=O)CN(C)C(=O)[C@H](Cc2ccc(C(F)(F)F)cc2)N2CCCCC[C@@H](C2=O)N(C)C(=O)CN(C)C1=O [PP0487] |  |  | NRAS/KRAS (ratio of KD value with respect to NRAS to KD value with respect to KRAS) [2]: B (a compound having 3 or more and less than 10 is denoted as B); HRAS/KRAS (ratio of KD value with respect to HRAS to KD value with respect to KRAS) [3]: B (a compound having 3 or more and less than 10 is denoted as B) |
|  | 6900 pM | CCCN1C(=O)CN(CC)C(=O)CN(C)C(=O)[C@H]([C@@H](C)CC)NC(=O)[C@H](CC(C)C)N(C)C(=O)C[C@@H](C(=O)N2CCOCC2)N(C)C(=O)[C@H](C2CCCC2)N(C)C(=O)C2(CCCC2)NC(=O)[C@@H]2CCCN2C(=O)[C@H](CCc2ccc(C(F)(F)F)c(Cl)c2)NC(=O)CN(CC)C(=O)[C@@H]1Cc1ccc(C)cc1 [PP0069] ([NMeL]I[Sar][NEtG][NPrPhe(4-Me)][NEtG][hPhe(3-Cl-4-CF3)]P[Ac5c][NMeGly(cPent)][NMeD]-Morpholide; lactam N-11) | C (A compound having a KD ratio of 0.1 or more and less than 3 is denoted as C) | C (A compound having a KD ratio of 0.1 or more and less than 3 is denoted as C) |  |
|  | 2300 pM | CC[C@H](C)[C@@H]1NC(=O)[C@H](CC(C)C)N(C)C(=O)C[C@@H](C(=O)N2CCOCC2)N(C)C(=O)[C@H](CC(C)C)N(C)C(=O)C2(CCCC2)NC(=O)[C@@H]2CCCN2C(=O)[C@H](CCc2ccc(C(F)(F)F)c(Cl)c2)NC(=O)CN(C)C(=O)[C@H](Cc2ccc(C)cc2)N(CC)C(=O)CN(C)C(=O)CN(C)C1=O [PP0045] ([NMeL]I[Sar][Sar][NEtPhe(4-Me)][Sar][hPhe(3-Cl-4-CF3)]P[Ac5c][NMeL][NMeD]-Morpholide; lactam N-11) | C (A compound having a KD ratio of 0.1 or more and less than 3 is denoted as C) | C (A compound having a KD ratio of 0.1 or more and less than 3 is denoted as C) |  |

Reference: patent publication US20240158446A1, “CYCLIC COMPOUND HAVING SELECTIVE INHIBITORY ACTION ON KRAS OVER HRAS AND NRAS” (CHUGAI SEIYAKU KABUSHIKI KAISHA, priority 2021, published 2024)
